Measured values published in patent US7538131B2, “2-{-3-′2-(phenyl)-oxazol-4-ylmethoxymethyl-cyclohexylmethoxy}-propionic acid derivatives useful as peroxisome proliferator-activated receptor (PPAR) ligands for the treatment of hyperlipidemia and diabetes” (Sanofi-Aventis Deutschland GmbH, priority 2004, dated 2009).

Assays:
[1] = biological target: T1, human PPARalpha (Homo sapiens, UniProt Q07869); experiment: Cellular PPARalpha assay (stably transfected HEK luciferase reporter cell line); format: cell-based; settings: GR-GAL4-humanPPARalpha-LBD, 24 h
T1 construct: human PPARalpha receptor (amino acids S167-Y468); expressed in transfected cells; host or cells: HEK cells (stably transfected, pcDNA3, CMV promoter)
T1 sequence (Q07869 167-468): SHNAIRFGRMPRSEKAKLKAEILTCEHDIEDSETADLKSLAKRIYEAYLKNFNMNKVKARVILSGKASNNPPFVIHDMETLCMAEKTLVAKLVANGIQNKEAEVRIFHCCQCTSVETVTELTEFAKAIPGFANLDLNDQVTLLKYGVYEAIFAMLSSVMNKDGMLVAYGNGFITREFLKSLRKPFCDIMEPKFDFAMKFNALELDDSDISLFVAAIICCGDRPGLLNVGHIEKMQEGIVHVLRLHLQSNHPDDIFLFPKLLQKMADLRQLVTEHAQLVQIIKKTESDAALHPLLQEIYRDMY
Description: 1) Determination of EC50 Values of PPAR Agonists in the Cellular PPARalpha Assay
The activity of the novel compounds of the present invention was tested as follows The potency of substances which bind to human PPARalpha and activate it in an agonistic manner is analyzed using a stably transfected HEK cell line (HEK=human embryo kidney) which is referred to here as PPARalpha reporter cell line. It contained two genetic elements, a luciferase reporter element (pdeltaM-GAL4-Luc-Zeo) and a PPARalpha fusion protein (GR-GAL4-humanPPARalpha-LBD) which mediates expression of the luciferase reporter element depending on a PPARalpha ligand. The stably and constitutively expressed fusion protein GR-GAL4-humanPPARalpha-LBD binds in the cell nucleus of the PPARalpha reporter cell line via the GAL4 protein portion to the GAL4 DNA binding motifs 5′-upstream of the luciferase reporter element which was stably integrated in the genome of the cell line. There is only little expression of the luciferase reporter gene without addition of a PPARalpha ligand if fatty acid-depleted fetal calf serum (cs-FCS) is used in the assay. PPARalpha ligands bind and activate the PPARalpha fusion protein and thereby bring about expression of the luciferase reporter gene. The luciferase which is formed can be detected by means of chemiluminescence via an appropriate substrate.
The PPARalpha reporter cell line was prepared in two steps. Firstly, the luciferase reporter element was constructed and stably transfected into HEK cells. For this purpose, five binding sites of the yeast transcription factor GAL4 (in each case 5′-CGGAGTACTGTCCTCCGAG-3′) were cloned in 5′-upstream of a 68 bp-long minimal MMTV promoter (Genbank Accession #V01175). The minimal MMTV promoter section contains a CCAAT box and a TATA element in order to enable efficient transcription by RNA polymerase II. The cloning and sequencing of the GAL4-MMTV construct took place in analogy to the description of Sambrook J. et. al. (Molecular Cloning, Cold Spring Harbor Laboratory Press, 1989). Which is hereby incorporated by reference herein.
The complete Photinus pyralis luciferase gene (Genbank Accession #M15077) was cloned in 3′-downstream of the GAL4-MMTV element. After sequencing, the luciferase reporter element consisting of five GAL4 binding sites, MMTV promoter and luciferase gene was subcloned into a plasmid which confers zeozin resistance in order to obtain the plasmid pdeltaM-GAL4-Luc-Zeo. This vector was transfected into HEK cells in accordance with the statements in Ausubel, F.M. et al. (Current Protocols in Molecular Biology, Vol. 1-3, John Wiley & Sons, Inc., 1995).
In a second step, the PPARalpha fusion protein (GR-GAL4-humanPPARalpha-LBD) was introduced into the stable cell clone described. For this purpose, initially the cDNA coding for the N-terminal 76 amino acids of the glucocorticoid receptor (Genbank Accession # P04150) was linked to the cDNA section coding for amino acids 1-147 of the yeast transcription factor GAL4 (Genbank Accession #P04386). The cDNA of the ligand-binding domain of the human PPARalpha receptor (amino acids S167-Y468; Genbank Accession #S74349) was cloned in at the 3′ end of this GR-GAL4 construct. The fusion construct prepared in this way (GR-GAL4-humanPPARalpha-LBD) was subcloned into the plasmid pcDNA3 (from Invitrogen) in order to enable constitutive expression therein by the cytomegalovirus promoter. This plasmid was linearized with a restriction endonuclease and stably transfected into the previously described cell clone containing the luciferase reporter element. The finished PPARalpha reporter cell line which contains a luciferase reporter element and constitutively expresses the PPARalpha fusion protein (GR-GAL4-humanPPARalpha-LBD) was isolated by selection with zeozin (0.5 mg/ml) and G418 (0.5 mg/ml).
The activity of PPARalpha agonists was determined in a 3-day assay which is described below: […]

[2] = biological target: T2, human PPARgamma (Homo sapiens, UniProt P37231); experiment: Cellular PPARgamma assay (transiently transfected HEK cells, luciferase reporter); format: cell-based; settings: GAL4-humanPPARgammaLBD, firefly/Renilla luciferase ratio, 48 h
T2 construct: human PPARgamma receptor (amino acids 1152-Y475); expressed in transfected cells; host or cells: HEK cells (transiently transfected, pcDNA3-GAL4-humanPPARgammaLBD)
T2 sequence (P37231 182-477 isoform P37231-2 limits assumed): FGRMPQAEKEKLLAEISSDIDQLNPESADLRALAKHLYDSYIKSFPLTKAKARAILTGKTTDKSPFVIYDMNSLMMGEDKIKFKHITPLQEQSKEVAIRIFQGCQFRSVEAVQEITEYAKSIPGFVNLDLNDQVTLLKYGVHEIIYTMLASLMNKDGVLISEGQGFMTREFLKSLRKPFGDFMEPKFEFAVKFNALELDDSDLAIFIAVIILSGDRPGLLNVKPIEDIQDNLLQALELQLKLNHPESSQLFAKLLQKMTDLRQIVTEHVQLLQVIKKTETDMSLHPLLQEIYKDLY
From the text: 4) Determination of EC50 Values of PPAR Agonists in the Cellular PPARgamma Assay
A transient transfection system is employed to determine the cellular PPARgamma activity of PPAR agonists. It is based on the use of a luciferase reporter plasmid (pGL3basic-5xGAL4-TK) and of a PPARgamma expression plasmid (pcDNA3-GAL4-humanPPARgammaLBD). Both plasmids are transiently transfected into human embryonic kidney cells (HEK cells). There is then expression in these cells of the fusion protein GAL4-humanPPARgammaLBD which binds to the GAL4 binding sites of the reporter plasmid. In the presence of a PPARgamma-active ligand, the activated fusion protein GAL4-humanPPARgammaLBD induces expression of the luciferase reporter gene, which can be detected in the form of a chemiluminescence signal after addition of a luciferase substrate. As a difference from the stably transfected PPARalpha reporter cell line, in the cellular PPARgamma assay the two components (luciferase reporter plasmid and PPARgamma expression plasmid) are transiently transfected into HEK cells because stable and permanent expression of the PPARgamma fusion protein is cytotoxic.
The luciferase reporter plasmid pGL3basic-5xGAL4-TK is based on the vector pGL3basic from Promega. The reporter plasmid is prepared by cloning five binding sites of the yeast transcription factor GAL4 (each binding site with the sequence 5′-CTCGGAGGACAGTACTCCG-3′), together with a 160 bp-long thymidine kinase promoter section (Genbank Accession #AF027128) 5′-upstream into pGL3basic. 3′-downstream of the thymidine kinase promoter is the complete luciferase gene from Photinus pyralis (Genbank Accession # Ml 5077), which is already a constituent of the plasmid pGL3basic used. The cloning and sequencing of the reporter plasmid pGL3basic-5xGAL4-TK took place in analogy to the description in Sambrook J. et. al. (Molecular cloning, Cold Spring Harbor Laboratory Press, 1989).
The PPARgamma expression plasmid pcDNA3-GAL4-humanPPARgammaLBD was prepared by first cloning the cDNA coding for amino acids 1-147 of the yeast transcription factor GAL4 (Genbank Accession #P04386) into the plasmid pcDNA3 (from Invitrogen) 3′-downstream of the cytomegalovirus promoter. Subsequently, the cDNA of the ligand-binding domain (LBD) of the human PPARgamma receptor (amino acids […]; Accession #g1480099) 3′-downstream of the GAL4 DNA binding domain was cloned. Cloning and sequencing of the PPARgamma expression plasmid pcDNA3-GAL4-humanPPARgammaLBD again took place in analogy to the description in Sambrook J. et. al. (Molecular cloning, Cold Spring Harbor Laboratory Press, 1989). Besides the luciferase reporter plasmid pGL3basic-5xGAL4-TK and the PPARgamma expression plasmid pcDNA3-GAL4-humanPPARgammaLBD, also used for the cellular PPARgamma assay are the reference plasmid pRL-CMV (from Promega) and the plasmid pBluescript SK(+) from Stratagene. All four plasmids were prepared using a plasmid preparation kit from Qiagen, which ensured a plasmid quality with a minimal endotoxin content, before transfection into HEK cells.
The activity of PPARgamma agonists is determined in a 4-day assay which is described below. Before the transfection, HEK cells were cultivated in DMEM medium (#41965-039, Invitrogen) which was mixed with the following additions: 10% FCS (#16000-044, Invitrogen),1% penicillin-streptomycin solution (#15140-122, Invitrogen) and 2 mM L-glutamine (#25030-024, Invitrogen).
Solution A, a transfection mixture which contains all four plasmids previously described in addition to DMEM medium, was prepared. […]

| Compound | EC50 [1] [nM] | EC50 [2] [nM] |
| --- | --- | --- |
| 2-{(1R,3S)-3-[5-Isopropyl-2-(3-methoxyphenyl)oxazol-4-ylmethoxymethyl]cyclohexylmethoxy}-2-methylpropionic acid [Example 15] | 71.7 | 150 |
| Cc1oc(-c2ccccc2)nc1COCC1CCCC(COC(C)(C)C(=O)O)C1 (centres unmarked) [*] | 75 | 2590 |
| CCc1oc(-c2cccc(C(F)(F)F)c2)nc1COC[C@@H]1CCC[C@H](COC(C)(C)C(=O)O)C1 [Example 2, 2-{(1S,3R)-3-[5-Ethyl-2-(3-trifluoromethylphenyl)-oxazol-4-ylmethoxymethyl]cyclohexylmethoxy}-2-methylpropionic acid] | 32 | 232 |
| CCc1oc(-c2ccccc2C(F)(F)F)nc1COC[C@@H]1CCC[C@H](COC(C)(C)C(=O)O)C1 [Example 3, 2-{(1S,3R)-3-[5-Ethyl-2-(2-trifluoromethylphenyl)-oxazol-4-ylmethoxymethyl]cyclohexylmethoxyl}-2-methylpropionic acid] | 152 | 2760 |
| CC(C)c1oc(-c2cccc(C(F)(F)F)c2)nc1COC[C@@H]1CCC[C@H](COC(C)(C)C(=O)O)C1 [Example 7, 2-{(1S,3R)-3-[5-Isopropyl-2-(3-trifluoromethylphenyl)oxazol-4-ylmethoxymethyl]cyclohexylmethoxyl}-2-methylpropionic acid] | 46.2 | 800 |
| Cc1ccc(-c2nc(COC[C@@H]3CCC[C@H](COC(C)(C)C(=O)O)C3)c(C(C)C)o2)cc1C [Example 8, 2-{(1S,3R)-3-[2-(3,4-Dimethylphenyl)-5-isopropyloxazol-4-ylmethoxymethyl]cyclohexylmethoxy}-2-methylpropionic acid] | 37.5 | 1500 |
| CC(C)c1oc(-c2ccc(C(C)(C)C)cc2)nc1COC[C@@H]1CCC[C@H](COC(C)(C)C(=O)O)C1 [Example 9, 2-{(1S,3R)-3-[2-(4-tert-butylphenyl)-5-isopropyloxazol-4-ylmethoxymethyl]cyclohexylmethoxy}-2-methylpropionic acid] | 48.8 | 492 |
| COc1cccc(-c2nc(COC[C@@H]3CCC[C@H](COC(C)(C)C(=O)O)C3)c(C(C)C)o2)c1 [Example 10, 2-{1(1S,3R)-3-[5-Isopropyl-2-(3-methoxyphenyl)oxazol-4-ylmethoxymethyl]cyclohexylmethoxy}-2-methylpropionic acid] | 381 | 672 |

Compounds with a lower EC50 [1], results first:

| EC50 [1] [nM] | EC50 [2] [nM] | Compound |
| --- | --- | --- |
| 19.3 | 1880 | CC(C)c1oc(-c2ccc(C(F)(F)F)cc2)nc1COC[C@@H]1CCC[C@H](COC(C)(C)C(=O)O)C1 [Example 6, 2-{(1S,3R)-3-[5-Isopropyl-2-(4-trifluoromethylphenyl)oxazol-4-ylmethoxymethyl]cyclohexylmethoxy}-2-methylpropionic acid] |
| 14.3 | 266 | CCc1oc(-c2ccc(C(C)(C)C)cc2)nc1COC[C@@H]1CCC[C@H](COC(C)(C)C(=O)O)C1 [Example 5, 2-{1(1S,3R)-3-[2-(4-tert-butylphenyl)-5-ethyloxazol-4-ylmethoxymethyl]cyclohexylmethoxy}-2-methylpropionic acid] |
| 3.6 | 1560 | CCc1oc(-c2ccc(C(F)(F)F)cc2)nc1COC[C@@H]1CCC[C@H](COC(C)(C)C(=O)O)C1 [Example 1, 2-{(1S,3R)-3-[5-Ethyl-2-(4-trifluoromethylphenyl)oxazol-4-ylmethoxymethyl]cyclohexylmethoxy}-2-methylpropionic acid] |
| 1.9 | 324 | CCc1oc(-c2ccc(C)c(C)c2)nc1COC[C@@H]1CCC[C@H](COC(C)(C)C(=O)O)C1 [Example 4, 2-{(1S,3R)-3-[2-(3,4-Dimethylphenyl)-5-ethyloxazol-4-ylmethoxymethyl]cyclohexylmethoxy}-2-methylpropionic acid] |
| 1.3 | > 10000 | Cc1oc(-c2ccc(C(C)C)cc2)nc1COCC1CCCC(COC(C)(C)C(=O)O)C1 (centres unmarked) [**] |
